Assay results as given in patent US20090074757A1, “Antitumor Combination Comprising Substituted Acryloyl Distamycin Derivatives and Antibodies Inhibiting Growth Factors or Their Receptors” (priority 2005, published 2009).

Tested on: DU145 human prostate carcinoma cells
Assay: In vivo antitumor efficacy, DU145 human prostate carcinoma xenograft in athymic mice
Design: species or system Balb Nu/Nu athymic mice
Conditions: for Toxicity: evaluated on the basis of body weight reduction, animals per group of 8, bevacizumab 20 mg/kg i.p., brostallicin 0.2 mg/kg i.v.; for Time to reach 1 g / T-C (days), delay for treated vs control tumors to reach 1 g: s.c. DU145 tumors in athymic mice, bevacizumab 20 mg/kg i.p. days 6,10,13,17,20,24; for Time to reach 1 g: treatment from day 6, brostallicin 0.2 mg/kg i.v. days 6,13,20 (q7d x 3); for T-C (days), delay for treated vs control tumors to reach 1 g: brostallicin 0.2 mg/kg i.v. days 6,13,20
Procedure: Balb Nu/Nu, male mice, (athymic mice) from Harlan, Italy, were maintained in cages with paper filter covers, food and bedding sterilized and water acidified. 2.5×10^6 DU145 human prostate carcinoma cells (from American Type Culture Collection) were injected subcutaneously in athymic mice. […] The treatments started 6 days later when the tumors were palpable. All drugs were prepared immediately before use. Brostallicin treatments were administered intravenously in a volume of 10 ml/kg at a dose of 0.2 mg/kg and treatments were repeated weekly for 3 weeks. Bevacizumab was administered intraperitoneally in a volume of 10 ml/kg at a dose of 20 mg/kg on the days 6, 10, 13, 17, 20 and 24 from the day of cell injection. When both compounds were administered on the same day, bevacizumab was administered intraperitoneally immediately before brostallicin intravenous injection. Every 3 days the tumor growth and the net body weight were evaluated. Tumor growth was assessed by caliper. The two diameters were recorded, and the tumor weight was calculated according to the following formula: length (mm)×width^2 (mm)/2. The effect of the antitumor treatment was determined as the delay in the onset of an exponential growth of tumors [see for reference, Anti Cancer Drugs 7: 437-60, 1996]. This delay (T-C value) was defined as the difference of the time (in days) required for the treatment group (T) and the control group (C) tumors to reach a predetermined size (e.g. 1 g). Toxicity was evaluated on the basis of the body weight reduction.

Compound | Toxicity | Time to reach 1 g | T-C (days), delay for treated vs control tumors to reach 1 g
C=C(Br)C(=O)Nc1cc(C(=O)Nc2cc(C(=O)Nc3cc(C(=O)Nc4cc(C(=O)NCCNC(=N)N)n(C)c4)n(C)c3)n(C)c2)n(C)c1.Cl [Brostallicin, N-(5-{[(5-{[(5-{[(2-{[amino(imino)methyl]amino}ethyl)amino]carbonyl}-1-methyl-1H-pyrrol-3-yl)amino]carbonyl}-1-methyl-1H-pyrrol-3-yl)amino]carbonyl}-1-methyl-1H-pyrrol-3-yl)-4-[(2-bromoacryloyl)amino]-1-methyl-1H-pyrrole-2-carboxamide hydrochloride] | 0/8 | 18.4 ± 5.6 days | 4.6 days
Bevacizumab: monoclonal antibody directed against the vascular endothelial growth factor (VEGF), a potent neo-vascularisation inhibitor | 0/8 | 23.4 ± 4.6 days | 9.6 days
